Results published in patent US12324809B2, “Fluoro beta-carboline compounds” (OSSIFI THERAPEUTICS LLC, priority 2018, dated 2025).

How the values were obtained:
sclerostin = target: T1, sclerostin (Homo sapiens, UniProt Q9BQB4); experiment: Modulation of sclerostin/Wnt activity: restoring Wnt3a signaling in the presence of sclerostin; type: cell-based; design: key to Sclerostin Inhibition Assay; improvement over sclerostin alone: − indicates no improvement over sclerostin protein alone; + indicates an IC100 >10 μM; ++ indicates an IC100 <10 μM; conditions: for Sclerostin Inhibition Assay; improvement over sclerostin alone: IC100 class, Wnt3a signaling in human embryonic cells in presence of sclerostin
T1 construct: host or cells: human embryonic cells (the assay cells)
T1 sequence (Q9BQB4 24-213): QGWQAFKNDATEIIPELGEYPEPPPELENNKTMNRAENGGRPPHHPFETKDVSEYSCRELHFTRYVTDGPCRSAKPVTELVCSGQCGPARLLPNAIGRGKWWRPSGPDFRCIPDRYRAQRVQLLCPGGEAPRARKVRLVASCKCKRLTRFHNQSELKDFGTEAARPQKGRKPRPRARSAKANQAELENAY
Method: Compounds synthesized in accordance with the methods of Examples 1-14 were assayed for their ability to restore Wnt signaling in the presence of sclerostin consistent with a known sclerostin antagonist, sclerostin Mab. See, Ellies et al., J Bone Miner Res 21:1738-1749 (2006). […] The addition of a known sclerostin antagonist inhibited sclerostin inhibition of Wnt3a signaling, thus restoring Wnt3a signaling in the cell (IC100 at 10 μM) (data not shown).

[1] = system: MC3T3-E1 (mouse calvarial) osteoblast cells; experiment: Bone formation assay: rescue of sclerostin inhibition of mineralization (calcium concentration); type: cell-based; design: key to Sclerostin Inhibition of Mineralization; improvement over sclerostin alone: − indicates no improvement over sclerostin protein alone; + indicates an IC100 >10 μM; ++ indicates an IC100 <10 μM; conditions: for IC100: Mus musculus, MC3T3-E1, IC100 class, read-out: Sclerostin Inhibition of Mineralization, improvement over sclerostin alone; for Sclerostin Inhibition of Mineralization; improvement over sclerostin alone: IC100 class
Method: Mineralization (crystalline calcium phosphate formation) represents an in vitro model of bone formation. Using an assay in which the amount of mineralization is quantified by measuring total calcium after solubilization of deposited crystalline calcium phosphate, sclerostin was previously shown to inhibit mineralization in MC3T3-E1 (mouse calvarial) osteoblast cells. Li et al., J Bone Miner Res 24:578-588 (2008). Following the protocol described in Li et al., Compounds were assayed for their ability to rescue the inhibition of mineralization by sclerostin in MC3T3 osteoblast cells. […] Addition of a compound of Examples 1-14 neutralized sclerostin-mediated inhibition of mineralization, as reflected by the increase in calcium concentration.

[2] = Metabolic stability in pooled human liver microsomes; type: in vitro ADME; conditions: 0.1 μM compound, human liver microsomes 0.1 mg/mL, NADPH, 37 °C, 60 minutes
Method: Compounds of the present invention (0.1 μM) were incubated with microsomes at 37 °C for a total of 60 minutes. The reaction contained pooled human liver microsomal protein (0.1 mg/mL) in potassium phosphate buffer with NADPH. At the indicated time points (0, 5, 15, 30 and 60 minutes). Samples were analyzed by LC/MS/MS and remaining parent drug was calculated using Microsoft Excel (2007). Obach R S, Drug Metab Dispos. 27(11):1350-1359 (1999).

Compound | Sclerostin Inhibition Assay; improvement over sclerostin alone (sclerostin) | Metabolic Stability [2] | Effect of sclerostin on Wnt3a signaling (in words) (sclerostin; human embryonic cells) | IC100 [1] | Sclerostin Inhibition of Mineralization; improvement over sclerostin alone [1] | Effect of sclerostin treatment alone on mineralization (in words) [1]
COc1ccc2c3ccnc(C(F)(F)F)c3n(CCN3CCOCC3)c2c1F.Cl [Example 1, 4-(2-(8-Fluoro-7-methoxy-1-(trifluoromethyl)-9H-pyrido[3,4-b]indol-9-yl)ethyl)morpholine Hydrochloride Salt] | + (+ indicates an IC100 >10 μM) | ++ (++ indicates a stability >1x) |  | > 10 µM |  | 
COc1cc2c(cc1F)c1ccnc(C(F)(F)F)c1n2CCN1CCOCC1.Cl [Example 2, 4-(2-(6-fluoro-7-methoxy-1-(trifluoromethyl)-9H-pyrido[3,4-b]indol-9-yl)ethyl)morpholine Hydrochloride Salt] | ++ (++ indicates an IC100 <10 μM) | ++ (++ indicates a stability >1x) |  | < 10 µM |  | 
COc1cc2c(cc1F)c1ccnc(C(F)(F)F)c1n2CCN1CCC(OC)CC1.Cl [Example 3, 6-Fluoro-7-methoxy-9-(2-(4-methoxypiperidin-1-yl)ethyl)-1-(trifluoromethyl)-9H-pyrido[3,4-b]indole Hydrochloride Salt] | ++ (++ indicates an IC100 <10 μM) | ++ (++ indicates a stability >1x) |  | < 10 µM |  | 
COc1cc2c(cc1F)c1ccnc(C(F)(F)F)c1n2CCN1CCN(C)C(=O)C1.Cl [Example 4, 4-(2-(6-Fluoro-7-methoxy-1-(trifluoromethyl)-9H-pyrido[3,4-b]indol-9-yl)ethyl)-1-methylpiperazin-2-one Hydrochloride Salt] | + (+ indicates an IC100 >10 μM) | ++ (++ indicates a stability >1x) |  | > 10 µM |  | 
COc1cc2c(cc1F)c1ccnc(C(F)(F)F)c1n2CCN1CC(OC(F)F)C1.Cl [Example 5, 9-(2-(3-(Difluoromethoxy)azetidin-1-yl)ethyl)-6-fluoro-7-methoxy-1-(trifluoromethyl)-9H-pyrido[3,4-b]indole Hydrochloride Salt] | ++ (++ indicates an IC100 <10 μM) | ++ (++ indicates a stability >1x) |  | < 10 µM |  | 
COc1cc2c(cc1F)c1ccnc(C(F)(F)F)c1n2CCN1CC2CCC(C1)O2.Cl [Example 6, 3-(2-(6-Fluoro-7-methoxy-1-(trifluoromethyl)-9H-pyrido[3,4-b]indol-9-yl)ethyl)-8-oxa-3-azabicyclo[3.2.1]octane Hydrochloride Salt] | ++ (++ indicates an IC100 <10 μM) | ++ (++ indicates a stability >1x) |  | < 10 µM |  | 
COc1cc2c(cc1F)c1ccnc(C(F)(F)F)c1n2CCN1C2CCC1COC2.Cl [Example 7, 8-(2-(6-Fluoro-7-methoxy-1-(trifluoromethyl)-9H-pyrido[3,4-b]indol-9-yl)ethyl)-3-oxa-8-azabicyclo[3.2.1]octane Hydrochloride Salt] | ++ (++ indicates an IC100 <10 μM) | + (+ indicates a stability of <1x) |  | < 10 µM |  | 
COc1cc2c(cc1F)c1ccnc(C(F)(F)F)c1n2CCN1CC2CC1CO2.Cl (stereo not shown) [Example 8, 5-(2-(6-Fluoro-7-methoxy-1-(trifluoromethyl)-9H-pyrido[3,4-b]indol-9-yl)ethyl)-2-oxa-5-azabicyclo[2.2.1]heptane Hydrochloride Salt] | ++ (++ indicates an IC100 <10 μM) | + (+ indicates a stability of <1x) |  | < 10 µM |  | 
COc1cc2c(cc1F)c1ccnc(C(F)(F)F)c1n2CCN1CC(OC)C(OC)C1.Cl (stereo not shown) [Example 9, 9-(2-(3,4-Dimethoxypyrrolidin-1-yl)ethyl)-6-fluoro-7-methoxy-1-(trifluoromethyl)-9H-pyrido[3,4-b]indole Hydrochloride Salt] | ++ (++ indicates an IC100 <10 μM) | + (+ indicates a stability of <1x) |  | < 10 µM |  | 
COc1cc2c(cc1F)c1ccnc(C(F)(F)F)c1n2CCN1CCC(OC)C1.Cl (stereo not shown) [Example 10, 6-Fluoro-7-methoxy-9-(2-(3-methoxypyrrolidin-1-yl)ethyl)-1-(trifluoromethyl)-9H-pyrido[3,4-b]indole Hydrochloride Salt] | ++ (++ indicates an IC100 <10 μM) | ++ (++ indicates a stability >1x) |  | < 10 µM |  | 

More lines, main results first:

Sclerostin Inhibition Assay; improvement over sclerostin alone (sclerostin) | Metabolic Stability [2] | Effect of sclerostin on Wnt3a signaling (in words) (sclerostin; human embryonic cells) | Compound | IC100 [1] | Sclerostin Inhibition of Mineralization; improvement over sclerostin alone [1] | Effect of sclerostin treatment alone on mineralization (in words) [1]
++ (++ indicates an IC100 <10 μM) | ++ (++ indicates a stability >1x) |  | COc1cc2c(cc1F)c1ccnc(C(F)(F)F)c1n2CCN1CC2COCC2C1.Cl (stereo not shown) [Example 11, 5-(2-(6-Fluoro-7-methoxy-1-(trifluoromethyl)-9H-pyrido[3,4-b]indol-9-yl)ethyl)hexahydro-1H-furo[3,4-c]pyrrole Hydrochloride Salt] | < 10 µM |  | 
− | ++ (++ indicates a stability >1x) |  | COc1cc2c(cc1F)c1ccnc(C(F)(F)F)c1n2CCN1CCC(F)(F)CC1.Cl [Example 12, 9-(2-(4,4-Difluoropiperidin-1-yl)ethyl)-6-fluoro-7-methoxy-1-(trifluoromethyl)-9H-pyrido[3,4-b]indole Hydrochloride Salt] |  | − | 
− | ++ (++ indicates a stability >1x) |  | COc1cc2c(cc1F)c1ccnc(C(F)(F)F)c1n2CCn1cncn1.Cl [Example 13, 9-(2-(1H-1,2,4-Triazol-1-yl)ethyl)-6-fluoro-7-methoxy-1-(trifluoromethyl)-9H-pyrido[3,4-b]indole Hydrochloride Salt] |  | − | 
++ (++ indicates an IC100 <10 μM) | + (+ indicates a stability of <1x) |  | COc1c(F)cc2c3ccnc(C(F)(F)F)c3n(CCN3CCOCC3)c2c1F.Cl [Example 14, 4-(2-(6,8-Difluoro-7-methoxy-1-(trifluoromethyl)-9H-pyrido[3,4-b]indol-9-yl)ethyl)morpholine Hydrochloride Salt] | < 10 µM |  | 
− |  | antagonized Wnt3a signaling | Sclerostin protein: protein that antagonizes Wnt3a signaling and inhibits mineralization; the assay's inhibitor and baseline |  | − | significant decrease in mineralization
